Measured values reported in patent EP0549857A1, “Antibacterial quinolone carboxylic acid derivatives” (KOREA RESEARCH INSTITUTE OF CHEMICAL TECHNOLOGY, priority 1991, dated 1993).
Converted amounts (≈) assume the structure as drawn. Read-outs that look alike come from different tables or passages of the source.

How the values were obtained:
Assay in all cases: In vitro anti-bacterial activity test (MIC, two-fold agar dilution)
Type in all cases: cell-based
Enterobacter cloacae P99 = settings: Mueller-Hinton agar, 10⁷ CFU/mℓ, 37°C, 18 hours
Escherichia coli DC 0 = settings: 10⁷ CFU/mℓ, 37°C, 18 hours
Salmonella typhimurium = settings: Mueller-Hinton agar, 10⁷ CFU/mℓ, 37°C, 18 hours
[1] = test system: Pseudomonas aeruginosa 1771M; settings: 18 h
[2] = test system: Staphylococcus aureus 285; settings: Staphylococcus aureus 285, Mueller-Hinton agar, 10⁷ CFU/mℓ, 37°C, 18 hours
[3] = test system: Staphylococcus aureus SG 511; settings: Staphylococcus aureus SG 511, Mueller-Hinton agar, 10⁷ CFU/mℓ, 37°C, 18 hours
Escherichia coli O 55 = settings: 10⁷ CFU/mℓ, 37°C, 18 hours
[4] = test system: Pseudomonas aeruginosa 9027; settings: Pseudomonas aeruginosa 9027, Mueller-Hinton agar, 10⁷ CFU/mℓ, 37°C, 18 hours
[5] = test system: Streptococcus pyogenes 77A; settings: Streptococcus pyogenes 77A, Mueller-Hinton agar, 10⁷ CFU/mℓ, 37°C, 18 hours
[6] = test system: Staphylococcus aureus 503; settings: Staphylococcus aureus 503, Mueller-Hinton agar, 10⁷ CFU/mℓ, 37°C, 18 hours
Escherichia coli 1507E = settings: Mueller-Hinton agar, 10⁷ CFU/mℓ, 37°C, 18 hours
[7] = test system: Pseudomonas aeruginosa 1771; settings: Pseudomonas aeruginosa 1771, Mueller-Hinton agar, 10⁷ CFU/mℓ, 37°C, 18 hours
Escherichia coli DC 2 = settings: 10⁷ CFU/mℓ, 37°C, 18 hours
Escherichia coli OTEM = settings: Mueller-Hinton agar, 10⁷ CFU/mℓ, 37°C, 18 hours
[8] = test system: Streptococcus pyogenes 308A; settings: Mueller-Hinton agar, 10⁷ CFU/mℓ, 37°C, 18 hours
[9] = test system: Pseudomonas aeruginosa 1592E; settings: Mueller-Hinton agar, 10⁷ CFU/mℓ, 37°C, 18 hours
[10] = test system: Klebsiella aerogenes 1522E; settings: Mueller-Hinton agar, 10⁷ CFU/mℓ, 37°C, 18 hours
[11] = test system: Streptococcus faecium MD 8b; settings: Streptococcus faecium MD 8b, Mueller-Hinton agar, 10⁷ CFU/mℓ, 37°C, 18 hours
[12] = test system: Klebsiella aerogenes 1082E; settings: Mueller-Hinton agar, 10⁷ CFU/mℓ, 37°C, 18 hours
[13] = test system: Enterobacter cloacae 1321E; settings: Mueller-Hinton agar, 10⁷ CFU/mℓ, 37°C, 18 hours
[14] = DC0, Mueller-Hinton agar, read-out: MIC
[15] = Salmonella enterica, read-out: MIC
[16] = O55, Mueller-Hinton agar, read-out: MIC
[17] = DC2, Mueller-Hinton agar, read-out: MIC
[18] = Enterococcus faecium, MD8B, read-out: MIC

| Compound | MIC (Enterobacter cloacae P99; read-out: MIC) | MIC (Escherichia coli DC 0; [14]) | MIC (Salmonella typhimurium; [15]) | MIC [1] | MIC ([2]; read-out: MIC) | MIC ([3]; SG511, read-out: MIC) | MIC (Escherichia coli O 55; [16]) | MIC ([4]; read-out: MIC) | MIC ([5]; read-out: MIC) | MIC ([6]; read-out: MIC) | MIC (Escherichia coli 1507E; read-out: MIC) | MIC ([7]; read-out: MIC) | MIC (Escherichia coli DC 2; [17]) | MIC (Escherichia coli OTEM; read-out: MIC) | MIC ([8]; read-out: MIC) | MIC ([9]; read-out: MIC) | MIC ([10]; read-out: MIC) | MIC [11, 18] | MIC ([12]; read-out: MIC) | MIC ([13]; read-out: MIC) | also measured |
| --- | --- | --- | --- | --- | --- | --- | --- | --- | --- | --- | --- | --- | --- | --- | --- | --- | --- | --- | --- | --- | --- |
| NC1CCCC2=C1CN(c1c(F)cc3c(=O)c(C(=O)O)cn(C4CC4)c3c1F)C2 (centres unmarked) [Example 9, 7-[6-amino-3-azabicyclo[4,3,0]non-1(5)ene-3-yl]-1-cyclopropyl-6,8-difluoro-1,4-dihydro-4-oxoquinoline-3-carboxylic acid] | 0.049 µg/mL (≈ 0.122 µM) | 0.781 µg/mL (≈ 1.95 µM) | 0.013 µg/mL (≈ 0.0324 µM) | 0.781 µg/mL (≈ 1.95 µM) | 0.098 µg/mL (≈ 0.244 µM) | 0.098 µg/mL (≈ 0.244 µM) | 0.049 µg/mL (≈ 0.122 µM) | 3.12 µg/mL (≈ 7.78 µM) | 0.098 µg/mL (≈ 0.244 µM) | 0.098 µg/mL (≈ 0.244 µM) | 0.098 µg/mL (≈ 0.244 µM) | 3.12 µg/mL (≈ 7.78 µM) | 0.195 µg/mL (≈ 0.486 µM) | 0.098 µg/mL (≈ 0.244 µM) | 0.391 µg/mL (≈ 0.974 µM) | 3.12 µg/mL (≈ 7.78 µM) | 0.195 µg/mL (≈ 0.486 µM) | 0.098 µg/mL (≈ 0.244 µM) | 0.195 µg/mL (≈ 0.486 µM) |  |  |
| CNC1CCC2=C1CN(c1c(F)cc3c(=O)c(C(=O)O)cn4c3c1OC[C@@H]4C)C2 (stereo partly drawn) [Example 17, 9-fluoro-10-[6-methylamino-3-azabicyclo [3,3,0]oct-1(5)ene-3-yl]-3-(S)-methyl-7-oxo-2,3-dihydro-7H-pyrido[1,2,3-de]-1,4-benzoxazine-6-carboxylic acid] | 0.781 µg/mL (≈ 1.96 µM) | 3.12 µg/mL (≈ 7.82 µM) | 0.391 µg/mL (≈ 0.979 µM) | 3.12 µg/mL (≈ 7.82 µM) | 0.781 µg/mL (≈ 1.96 µM) | 0.391 µg/mL (≈ 0.979 µM) | 0.195 µg/mL (≈ 0.488 µM) | 12.5 µg/mL (≈ 31.3 µM) | 0.195 µg/mL (≈ 0.488 µM) | 0.781 µg/mL (≈ 1.96 µM) | 0.781 µg/mL (≈ 1.96 µM) | 12.5 µg/mL (≈ 31.3 µM) | 0.391 µg/mL (≈ 0.979 µM) | 0.391 µg/mL (≈ 0.979 µM) | 3.12 µg/mL (≈ 7.82 µM) | 6.25 µg/mL (≈ 15.6 µM) | 1.56 µg/mL (≈ 3.91 µM) | 0.391 µg/mL (≈ 0.979 µM) | 0.195 µg/mL (≈ 0.488 µM) | 0.391 µg/mL (≈ 0.979 µM) |  |
| 7-[6-amino-3-azabicyclo[3,3,0]oct-1(5) ene-3-yl]-5-amino-1-cyclopropyl-6,8-difluoro-1,4-dihydro-4-oxoquinoline-3-carboxylic acid [Example 10] |  |  |  |  |  |  |  |  |  |  |  |  |  |  |  |  |  |  |  |  | MIC (Enterobacter cloacae P99): 0.025 µg/mL; MIC (Escherichia coli DC 0; Mueller-Hinton agar): 0.781 µg/mL; MIC (Salmonella typhimurium): 0.025 µg/mL; MIC [2]: 0.049 µg/mL; MIC [3]: 0.025 µg/mL; MIC [13]: 0.025 µg/mL; MIC (Escherichia coli O 55; Mueller-Hinton agar): 0.025 µg/mL; MIC [4]: 1.563 µg/mL; MIC [5]: 0.049 µg/mL; MIC [6]: 0.025 µg/mL; MIC (Escherichia coli 1507E): 0.049 µg/mL; MIC [7]: 1.563 µg/mL; MIC (Escherichia coli DC 2; Mueller-Hinton agar): 0.049 µg/mL; MIC (Escherichia coli OTEM): 0.049 µg/mL; MIC [8]: 0.195 µg/mL; MIC [9]: 1.563 µg/mL; MIC [10]: 0.098 µg/mL; MIC [11]: 0.195 µg/mL; MIC [12]: 0.007 µg/mL |
| CNC1CCC2=C1CN(c1c(F)cc3c(=O)c(C(=O)O)cn(C4CC4)c3c1Cl)C2 (centres unmarked) [Example 4, 7-[6-methylamino-3-azabicyclo[3,3,0]oct-1(5)ene-3-yl]-8-chloro-1-cyclopropyl-6-fluoro-1,4-dihydro-4-oxoquinoline-3-carboxylic acid] | 0.098 µg/mL (≈ 0.235 µM) | 0.781 µg/mL (≈ 1.87 µM) | 0.049 µg/mL (≈ 0.117 µM) | 0.781 µg/mL (≈ 1.87 µM) | 0.049 µg/mL (≈ 0.117 µM) | 0.025 µg/mL (≈ 0.0598 µM) | 0.025 µg/mL (≈ 0.0598 µM) | 3.12 µg/mL (≈ 7.48 µM) | 0.025 µg/mL (≈ 0.0598 µM) | 0.025 µg/mL (≈ 0.0598 µM) | 0.098 µg/mL (≈ 0.235 µM) | 3.12 µg/mL (≈ 7.48 µM) | 0.025 µg/mL (≈ 0.0598 µM) | 0.098 µg/mL (≈ 0.235 µM) | 0.195 µg/mL (≈ 0.467 µM) | 3.12 µg/mL (≈ 7.48 µM) | 0.195 µg/mL (≈ 0.467 µM) | 0.049 µg/mL (≈ 0.117 µM) | < 0.002 µg/mL | 0.098 µg/mL (≈ 0.235 µM) |  |
| CNC1CCC2=C1CN(c1nc3c(cc1F)c(=O)c(C(=O)O)cn3C1CC1)C2 (centres unmarked) [Example 15, 7-[6-methylamino-3-azabicyclo[3,3,0]oct-1(5)ene-3-yl]-1-cyclopropyl-6-fluoro-1,4-dihydro-4-oxo-1,8-naphthyridine-3-carboxylic acid] | 0.049 µg/mL (≈ 0.127 µM) | 1.56 µg/mL (≈ 4.07 µM) | 0.195 µg/mL (≈ 0.507 µM) | 1.56 µg/mL (≈ 4.07 µM) | 0.195 µg/mL (≈ 0.507 µM) | 0.098 µg/mL (≈ 0.255 µM) | 0.049 µg/mL (≈ 0.127 µM) | 3.12 µg/mL (≈ 8.13 µM) | 0.195 µg/mL (≈ 0.507 µM) | 0.098 µg/mL (≈ 0.255 µM) | 0.195 µg/mL (≈ 0.507 µM) | 3.12 µg/mL (≈ 8.13 µM) | 0.391 µg/mL (≈ 1.02 µM) | 0.098 µg/mL (≈ 0.255 µM) | 0.781 µg/mL (≈ 2.03 µM) | 3.12 µg/mL (≈ 8.13 µM) | 0.195 µg/mL (≈ 0.507 µM) | 0.195 µg/mL (≈ 0.507 µM) | 0.025 µg/mL (≈ 0.065 µM) | 0.049 µg/mL (≈ 0.127 µM) |  |
